The source of these data is BindingDB's records for doi:10.3109/14756366.2013.777717 (Tokushima Bunri University, 2014).

The target of this assay is T1, Sphingomyelinase C (Bacillus cereus, UniProt P11889).
T1 sequence (P11889 whole entry): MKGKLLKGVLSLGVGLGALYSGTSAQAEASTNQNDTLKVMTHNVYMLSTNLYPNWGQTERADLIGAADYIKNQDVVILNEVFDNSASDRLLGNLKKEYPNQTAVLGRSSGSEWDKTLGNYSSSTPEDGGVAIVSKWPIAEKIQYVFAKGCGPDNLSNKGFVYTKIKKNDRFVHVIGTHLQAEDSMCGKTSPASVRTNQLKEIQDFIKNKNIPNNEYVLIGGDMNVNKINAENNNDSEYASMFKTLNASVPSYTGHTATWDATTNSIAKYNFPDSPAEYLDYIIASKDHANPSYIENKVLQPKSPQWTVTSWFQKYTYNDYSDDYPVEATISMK
Kind of assay: Turbidometric Assay. Conditions: pH 7.5; 37 °C. As for the experimental part:
Briefly, Bc-SMase (50 ng/ml) was treated at 37 °C for 60 min with various compounds that were solubilized in dimethylacetoamide. The reaction mixture was incubated at 37 °C for 5 h with 1.0mM SM from bovine brain (Nacalai, Kyoto, Japan) that was solubilized in a solution containing 20mM Tris-HCl (pH 7.5), 1.0% sodium cholate, and 1mM MgCl2. The turbidity of the reaction mixture was analysed by absorption spectrometer at 620 nm.

Structures are written as SMILES.

What is called IC50 is the point on the concentration scale where inhibition reaches its midpoint. High values mean lower potency, low ones higher potency. The term Ki denotes a measure of affinity in units of concentration, obtained from inhibition or displacement. A lower Ki goes with tighter binding. For `CCCCCCCCCCCCC/C=C/[C@@H](O)[C@H](COCc1cccc(-c2ccccn2)n1)NC(=O)CCCCC` [RY221B-a], the IC50 came to 1.2 µM and the Ki amounted to 5200 nM. For `CCCCCCCCCCCCC/C=C/[C@@H](Oc1cccc(-c2ccccn2)n1)[C@H](CO)NC(=O)CCCCC` [RY221B-b], the IC50 was over 20 µM. On the same count and under the same terms, for `CCCCCC(=O)N[C@@H](COCc1cccc(-c2ccccn2)n1)[C@H](O)/C=C/COc1ccc(C(=O)c2ccccc2)cc1` [SMY-469a] the value was over 20 µM. As for `CCCCCCCCCCCCC/C=C/[C@@H](O)[C@@H](N)COCc1cccc(-c2ccccn2)n1` [SMY-471], inhibition was half-maximal at 0.9 µM (IC50) and affinity was put at a Ki of 2800 nM. Consider `CCCCCC(=O)N[C@@H](COCc1cccc(-c2ccccn2)n1)[C@H](O)c1ccccc1` [SMY-540], for which the IC50 was determined as 0.8 µM and the affinity corresponds to a Ki of 1300 nM. Molecule `CCCCCCCCCCCCC/C=C/[C@@H](O)[C@H](COCc1cccc(-c2ccccn2)n1)NC(=O)OC(C)(C)C` [SMY-579] registered an IC50 of 18.3 µM. In other words, the double-digit micromolar range.

As for `CCCCCCCCCCCCCCC[C@@H](O)[C@H](COCc1cccc(-c2ccccn2)n1)NC(=O)CCCCC` [SMY-584], the half-maximal inhibitory concentration (IC50) is over 20 µM. Same read-out and setting: for `CCCCCCCCCCCCC/C=C/[C@@H](Oc1cccc(-c2ccccn2)n1)[C@H](COCc1cccc(-c2ccccn2)n1)NC(=O)CCCCC` [SMY-610] the value was 3.3 µM. On the same count and under the same terms, for `CCCCCCCCCCCCC/C=C/[C@@H](O)[C@H](COCc1cccc(-c2ccccn2)c1)NC(=O)CCCCC` [SMY-632] the value was over 20 µM; for `CCCCCC(=O)OC[C@H](COCc1cccc(-c2ccccn2)n1)OC(=O)CCCCC` [TOM-2-7], over 20 µM.

The molecule `CCCCCCOC[C@H](COCc1cccc(-c2ccccn2)n1)OCCCCCC` [TOM-2-18] yielded an IC50 of over 20 µM. As for `CCCCCCCCCCCCCCCCOC[C@H](COCc1cccc(-c2ccccn2)n1)OCCCCCCCCCCCCCCCC` [TOM-2-37], the IC50 is over 20 µM.
